Here are results for five compounds from US8809347B2, “Bicyclic aryl and bicyclic heteroaryl substituted triazoles useful as AXL inhibitors” (Rigel Pharmaceuticals, Inc., priority 2006, dated 2014).

Structures are written as SMILES.

Broadly, the IC50 is the concentration that gives 50% inhibition.

This test addresses T1, Axl (Homo sapiens, UniProt P30530).
T1 construct: Cells: Hela cells; endogenous in cells; host or cells: HeLa cells
T1 sequence (P30530 26-894): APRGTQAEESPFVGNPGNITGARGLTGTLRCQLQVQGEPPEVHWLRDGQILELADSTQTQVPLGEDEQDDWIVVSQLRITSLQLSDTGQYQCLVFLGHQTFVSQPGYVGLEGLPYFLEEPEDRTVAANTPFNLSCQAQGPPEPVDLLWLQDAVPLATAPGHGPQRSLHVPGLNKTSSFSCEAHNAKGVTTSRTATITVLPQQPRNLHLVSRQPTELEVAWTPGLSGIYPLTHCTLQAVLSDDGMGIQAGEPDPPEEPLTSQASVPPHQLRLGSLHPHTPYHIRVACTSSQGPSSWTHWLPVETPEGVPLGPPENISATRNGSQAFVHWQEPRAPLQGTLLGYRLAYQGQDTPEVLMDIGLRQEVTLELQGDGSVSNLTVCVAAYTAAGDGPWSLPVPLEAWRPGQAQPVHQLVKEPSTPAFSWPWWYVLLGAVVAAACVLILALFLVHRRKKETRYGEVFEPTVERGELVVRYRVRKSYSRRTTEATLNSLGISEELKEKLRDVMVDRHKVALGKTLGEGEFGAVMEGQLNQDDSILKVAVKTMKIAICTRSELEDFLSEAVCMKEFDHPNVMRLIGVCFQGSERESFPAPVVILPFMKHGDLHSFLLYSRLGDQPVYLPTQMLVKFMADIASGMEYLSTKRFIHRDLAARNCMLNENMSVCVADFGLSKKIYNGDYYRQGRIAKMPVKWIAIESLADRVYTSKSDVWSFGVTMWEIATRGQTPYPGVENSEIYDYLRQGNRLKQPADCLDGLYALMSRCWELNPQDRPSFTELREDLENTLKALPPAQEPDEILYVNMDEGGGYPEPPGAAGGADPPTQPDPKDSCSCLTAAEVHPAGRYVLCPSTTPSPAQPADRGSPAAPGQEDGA
Description: Phospho-Akt in-cell Western assay (inhibition of Axl activity). It counts as cell-based. Particulars: Hela cells; 1 hr pre-treatment; stimulation by Axl-antibody cross-linking; phospho-Akt chemiluminescence normalized to relative cell number.
`Cc1csc2c(-n3nc(Nc4cnc5c(c4)CCC(=O)CCC5)nc3N)nc(Cl)nc12` [Compound 34, 1-(2-chloro-7-methylthieno[3,2-d]pyrimidin-4-yl)-N^3-(7-oxo-5,6,8,9,10-pentahydrocycloocta[b]pyridin-3-yl)-1H-1,2,4-triazole-3,5-diamine]: the IC50 was less than 1000 nM.

Consider `Nc1nc(Nc2ccc(N3CCN(c4ccc(F)cc4)CC3)cc2)nn1-c1ncc2c(n1)CCCCCC2` [Compound 13, N^3-(4-(4-(4-fluorophenyl)piperazin-1-yl)phenyl)-1-(5,6,7,8,9,10-hexahydrocycloocta[d]pyrimidin-2-yl)-1H-1,2,4-triazole-3,5-diamine], for which the IC50 was more than 20000 nM.

On to `Cc1csc2c(-n3nc(Nc4ccc5c(c4)CCCN(C4CC6CCC4C6)CC5)nc3N)nc(Cl)nc12` (centres unmarked) [Compound 38, N^3-(3-(bicyclo[2.2.1]heptan-2-yl)-1,2,3,4,5,6-hexahydrobenzo[d]azocin-8-yl)-1-(2-chloro-7-methylthieno[3,2-d]pyrimidin-4-yl)-1H-1,2,4-triazole-3,5-diamine], for which the IC50 was less than 1000 nM.

Turning to `Cc1csc2c(-n3nc(Nc4cnc5c(c4)CCC(N4CCCC4)CCC5)nc3N)nc(Cl)nc12` (centres unmarked) [Compound 37, 1-(2-chloro-7-methylthieno[3,2-d]pyrimidin-4-yl)-N^3-(7-(pyrrolidin-1-yl)-5,6,7,8,9,10-hexahydrocycloocta[b]pyridin-3-yl)-1H-1,2,4-triazole-3,5-diamine], the IC50 is less than 1000 nM.

In the case of `Nc1nc(Nc2ccc(N3CCC(CN4CCCC4)CC3)nc2)nn1-c1ncnc2c1CCCCCC2` [Compound 52, N^3-(6-(4-((pyrrolidin-1-yl)methyl)piperidin-1-yl)pyridin-3-yl)-1-(5,6,7,8,9,10-hexahydrocycloocta[d]pyrimidin-4-yl)-1H-1,2,4-triazole-3,5-diamine], the 50% inhibitory concentration (IC50) was less than 1000 nM.
